Assay results published in patent US20090197856A1, “ANTIVIRAL COMPOUNDS” (Genelabs Technologies, Inc., priority 2007, published 2009).

Molecular target: T1, NS5B (Hepatitis C virus genotype 1b, UniProt Q9WMX2)
T1 construct: 3 nM NS5B, 20 nM polyC RNA template
Experiment: Polymerase assay, incorporation of radiolabeled GTP with biotinylated oligoG13 primer and polycytidylic acid RNA template
Format: biochemical
Settings: polyC RNA template, biotin-oligoG13 primer, tritiated GTP, 3 nM NS5B, 30° C., 2 hours
Experimental: The polymerase activity was also assayed by measuring incorporation of radiolabeled GTP into an RNA product using a biotinylated oligoG13 primer with a polycytidylic acid RNA template. Typically, the assay mixture (40 μL) contains 50 mM HEPES (pH 7.3), 2.5 mM magnesium acetate, 2 mM sodium chloride, 37.5 mM potassium acetate, 5 mM DTT, 0.4 U/mL RNasin, 2.5% glycerol, 3 nM NS5B, 20 nM polyC RNA template, 20 nM biotin-oligoG13 primer, and 0.2 μM tritiated guanosine triphosphate. Test compounds were initially dissolved and diluted in 100% DMSO and further diluted into aqueous buffer, producing a final concentration of 5% DMSO. Typically, compounds were tested at concentrations between 0.2 nM and 10 μM. Reactions were started with addition of tritiated guanosine triphosphate and allowed to continue at 30° C. for 2 hours. Reactions were quenched with 100 μL stop buffer containing 10 mM EDTA and 1 μg/mL streptavidin-coated scintillation proximity beads. Reaction plates were incubated at 4° C. for 10 hours and then incorporation of radioactivity was determined by scintillation counting. The table below lists the IC50 values of compounds determined using this procedure.

T1 sequence (Q9WMX2 2420-3010): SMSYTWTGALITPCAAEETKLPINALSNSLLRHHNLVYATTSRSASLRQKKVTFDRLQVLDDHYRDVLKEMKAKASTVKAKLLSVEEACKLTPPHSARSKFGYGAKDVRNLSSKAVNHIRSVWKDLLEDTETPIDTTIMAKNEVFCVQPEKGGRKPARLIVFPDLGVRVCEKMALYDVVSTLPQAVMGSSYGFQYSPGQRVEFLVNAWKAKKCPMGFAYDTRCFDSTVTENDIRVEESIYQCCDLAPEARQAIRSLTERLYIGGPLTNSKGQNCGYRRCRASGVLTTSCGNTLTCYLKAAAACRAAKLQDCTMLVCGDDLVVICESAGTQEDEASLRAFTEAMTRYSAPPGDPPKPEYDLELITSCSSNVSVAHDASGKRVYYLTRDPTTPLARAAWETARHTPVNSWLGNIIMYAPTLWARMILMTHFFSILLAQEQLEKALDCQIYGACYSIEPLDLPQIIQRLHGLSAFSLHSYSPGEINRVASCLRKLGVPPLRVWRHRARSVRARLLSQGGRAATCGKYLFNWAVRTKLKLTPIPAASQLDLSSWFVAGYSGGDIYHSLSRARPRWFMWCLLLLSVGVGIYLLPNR

IC50 | SMILES
15 nM | CC1(C)CN2CCCn3c(c(C4CCCCC4)c4ccc(C(=O)O)cc43)-c3cccc1c32 [Compound 271, 12-cyclohexyl-1,1-dimethyl-1,2,5,6-tetrahydro-4H-[1,5]diazocino[1,2-a:5,4,3-h′i′]diindole-9-carboxylic acid]
30 nM | CN1CCC2(C1)C(=O)N1CCCn3c(c(C4CCCCC4)c4ccc(C(=O)O)cc43)-c3cccc2c31 (centres unmarked) [Compound 272, 12-cyclohexyl-1′-methyl-2-oxo-5,6-dihydro-4H-spiro[1,5-diazocino[1,2-a:5,4,3-h′i′]diindole-1,3′-pyrrolidine]-9-carboxylic acid]
4.39 nM | NC1CCN2CCn3c(c(C4CCCCC4)c4ccc(C(=O)O)cc43)-c3cccc1c32 (centres unmarked) [Compound 273, 4-Amino-15-cyclohexyl-5,6,8,9-tetrahydro-4H-indolo[1′,2′:4,5][1,4]diazepino[6,7,1-ij]quinoline-12-carboxylic acid]
2.45 nM | N[C@@H]1CCN2CCn3c(c(C4CCCCC4)c4ccc(C(=O)O)cc43)-c3cccc1c32 [Compound 274, (4R)-4-amino-15-cyclohexyl-5,6,8,9-tetrahydro-4H-indolo[1′,2′:4,5][1,4]diazepino[6,7,1-ij]quinoline-12-carboxylic acid]
10.1 nM | N[C@H]1CCN2CCn3c(c(C4CCCCC4)c4ccc(C(=O)O)cc43)-c3cccc1c32 [Compound 275]
2.57 nM | CC(C)CNC1CCN2CCn3c(c(C4CCCCC4)c4ccc(C(=O)O)cc43)-c3cccc1c32 (centres unmarked) [Compound 278]
4.02 nM | O=C(O)c1ccc2c(C3CCCCC3)c3n(c2c1)CCN1CCC(NC2CCC2)c2cccc-3c21 (centres unmarked) [Compound 279]
4.3 nM | COCCNC1CCN2CCn3c(c(C4CCCCC4)c4ccc(C(=O)O)cc43)-c3cccc1c32 (centres unmarked) [Compound 283]
6.22 nM | NCCNC1CCN2CCn3c(c(C4CCCCC4)c4ccc(C(=O)O)cc43)-c3cccc1c32 (centres unmarked) [Compound 284]
4.33 nM | CCN(CC)C1CCN2CCn3c(c(C4CCCCC4)c4ccc(C(=O)O)cc43)-c3cccc1c32 (centres unmarked) [Compound 286]
2.71 nM | O=C(O)c1ccc2c(C3CCCCC3)c3n(c2c1)CCN1CCC(N2CCCC2)c2cccc-3c21 (centres unmarked) [Compound 287, 15-Cyclohexyl-4-pyrrolidin-1-yl-5,6,8,9-tetrahydro-4H-indolo[1′,2′:4,5][1,4]diazepino[6,7,1-ij]quinoline-12-carboxylic acid]
1.8 nM | O=C(O)c1ccc2c(C3CCCCC3)c3n(c2c1)CCN1CCC(N2CCCCC2)c2cccc-3c21 (centres unmarked) [Compound 288]
2.03 nM | O=C(O)c1ccc2c(C3CCCCC3)c3n(c2c1)CCN1CCC(N2CCOCC2)c2cccc-3c21 (centres unmarked) [Compound 289]
1.62 nM | CCN(CC)[C@@H]1CCN2CCn3c(c(C4CCCCC4)c4ccc(C(=O)O)cc43)-c3cccc1c32 [Compound 290]
1.94 nM | CCCN[C@@H]1CCN2CCn3c(c(C4CCCCC4)c4ccc(C(=O)O)cc43)-c3cccc1c32 [Compound 291]
2.02 nM | CC(C)N[C@@H]1CCN2CCn3c(c(C4CCCCC4)c4ccc(C(=O)O)cc43)-c3cccc1c32 [Compound 292, (4R)-15-cyclohexyl-4-(isopropylamino)-5,6,8,9-tetrahydro-4H-indolo[1′,2′:4,5][1,4]diazepino[6,7,1-ij]quinoline-12-carboxylic acid]
1.71 nM | CC(=O)N[C@@H]1CCN2CCn3c(c(C4CCCCC4)c4ccc(C(=O)O)cc43)-c3cccc1c32 [Compound 293, (4R)-4-Acetamido-15-cyclohexyl-5,6,8,9-tetrahydro-4H-indolo[1′,2′:4,5][1,4]diazepino[6,7,1-ij]quinoline-12-carboxylic acid]
1.55 nM | CC(C)(C)OC(=O)N[C@@H]1CCN2CCn3c(c(C4CCCCC4)c4ccc(C(=O)O)cc43)-c3cccc1c32 [Compound 294]
1.01 nM | CC(C)(C)NC(=O)N[C@@H]1CCN2CCn3c(c(C4CCCCC4)c4ccc(C(=O)O)cc43)-c3cccc1c32 [Compound 296, (4R)-4-[(tert-Butylcarbamoyl)amino]-15-cyclohexyl-5,6,8,9-tetrahydro-4H-indolo[1′,2′:4,5][1,4]diazepino[6,7,1-ij]quinoline-12-carboxylic acid]
1.67 nM | O=C(NCCN1CCCC1)N[C@@H]1CCN2CCn3c(c(C4CCCCC4)c4ccc(C(=O)O)cc43)-c3cccc1c32 [Compound 297]
7.17 nM | N[C@@H]1CCN2CCn3c(c(C4CCCCC4)c4ccc(C(=O)NC5CC5)cc43)-c3cccc1c32 [Compound 298, (4R)-4-amino-15-cyclohexyl-N-cyclopropyl-5,6,8,9-tetrahydro-4H-indolo[1′,2′:4,5][1,4]diazepino[6,7,1-ij]quinoline-12-carboxamide]
1 nM | CN(C)S(=O)(=O)NC(=O)c1ccc2c(C3CCCCC3)c3n(c2c1)CCN1CC[C@@H](N)c2cccc-3c21 [Compound 299, (4R)-4-amino-15-cyclohexyl-N-[(dimethylamino)sulfonyl]-5,6,8,9-tetrahydro-4H-indolo[1′,2′:4,5][1,4]diazepino[6,7,1-ij]quinoline-12-carboxamide]

IC50 | SMILES
0.769 nM | CC(C)N1CCC[C@H]1C(=O)N[C@@H]1CCN2CCn3c(c(C4CCCCC4)c4ccc(C(=O)O)cc43)-c3cccc1c32 [Compound 300, (4R)-15-cyclohexyl-4-[(1-isopropyl-L-prolyl)amino]-5,6,8,9-tetrahydro-4H-indolo[1′,2′:4,5][1,4]diazepino[6,7,1-ij]quinoline-12-carboxylic acid]
3.35 nM | NCCC1CCN2CCn3c(c(C4CCCCC4)c4ccc(C(=O)O)cc43)-c3cccc1c32 (centres unmarked) [Compound 301, 4-(2-aminoethyl)-15-cyclohexyl-5,6,8,9-tetrahydro-4H-indolo[1′,2′:4,5][1,4]diazepino[6,7,1-ij]quinoline-12-carboxylic acid]
6.81 nM | NCC[C@H]1CCN2CCn3c(c(C4CCCCC4)c4ccc(C(=O)O)cc43)-c3cccc1c32 [Compound 303]
9 nM | O=C(O)c1ccc2c(C3CCCCC3)c3n(c2c1)CCCn1cc(CNS(=O)(=O)C2CC2)c2cccc-3c21 [Compound 304, 12-Cyclohexyl-1-{[(cyclopropylsulfonyl)amino]methyl}-5,6-dihydro-4H-[1,5]diazocino[1,2-a:5,4,3-h′i′]diindole-9-carboxylic acid]
8 nM | CCN(CC)Cc1c(C(=O)N(C)C)n2c3c(cccc13)-c1c(C3CCCCC3)c3ccc(C(=O)O)cc3n1CCC2 [Compound 306]
4 nM | CN(C)C(=O)c1c(CN2CCCCC2)c2cccc3c2n1CCCn1c-3c(C2CCCCC2)c2ccc(C(=O)O)cc21 [Compound 307]
7 nM | CN(C)C(=O)c1c(CNC2CCOCC2)c2cccc3c2n1CCCn1c-3c(C2CCCCC2)c2ccc(C(=O)O)cc21 [Compound 308]
6 nM | CN(C)C(=O)c1c(CN2CCCC2)c2cccc3c2n1CCCn1c-3c(C2CCCCC2)c2ccc(C(=O)O)cc21 [Compound 309]
6 nM | CN(C)C(=O)c1c(CNS(=O)(=O)C2CC2)c2cccc3c2n1CCCn1c-3c(C2CCCCC2)c2ccc(C(=O)O)cc21 [Compound 310]
5 nM | CN(C)C(=O)c1c(CN2CCOCC2)c2cccc3c2n1CCCn1c-3c(C2CCCCC2)c2ccc(C(=O)O)cc21 [Compound 311]
4 nM | CCN(C)Cc1c(C(=O)N(C)C)n2c3c(cccc13)-c1c(C3CCCCC3)c3ccc(C(=O)O)cc3n1CC2 [Compound 312]
2 nM | CC(C)N1CCCC[C@H]1C(=O)N(C)Cc1c(C(=O)N(C)C)n2c3c(cccc13)-c1c(C3CCCCC3)c3ccc(C(=O)O)cc3n1CCC2 [Compound 313]
11 nM | CN(C)C(=O)c1c(CN(C)C(=O)C(C)(C)N2CCCC2)c2cccc3c2n1CCCn1c-3c(C2CCCCC2)c2ccc(C(=O)O)cc21 [Compound 314]
2 nM | CCN(C)Cc1c(C(=O)N(C)C)n2c3c(cccc13)-c1c(C3CCCCC3)c3ccc(C(=O)NS(=O)(=O)N(C)C)cc3n1CCC2 [Compound 315]
5 nM | CCN(C)Cc1c(C(=O)N(C)C)n2c3c(cccc13)-c1c(C3CCCCC3)c3ccc(C(=O)NS(=O)(=O)C4CC4)cc3n1CCC2 [Compound 316]
5 nM | CCN(C)Cc1c(C(=O)N(CC)CC)n2c3c(cccc13)-c1c(C3CCCCC3)c3ccc(C(=O)O)cc3n1CCC2 [Compound 317]
9 nM | CCN(C)Cc1c(C(=O)N2CCN(S(C)(=O)=O)CC2)n2c3c(cccc13)-c1c(C3CCCCC3)c3ccc(C(=O)O)cc3n1CCC2 [Compound 318]
11 nM | CCN(C)Cc1c(C(=O)NC2CC2)n2c3c(cccc13)-c1c(C3CCCCC3)c3ccc(C(=O)O)cc3n1CCC2 [Compound 319]
3 nM | CCN(C)Cc1c(C(=O)N2CCCC2)n2c3c(cccc13)-c1c(C3CCCCC3)c3ccc(C(=O)O)cc3n1CCC2 [Compound 320]
8 nM | CCN(C)Cc1c(C(=O)NS(=O)(=O)N(C)C)n2c3c(cccc13)-c1c(C3CCCCC3)c3ccc(C(=O)O)cc3n1CCC2 [Compound 321]
9 nM | CCN(C)Cc1c(C(=O)NS(=O)(=O)C2CC2)n2c3c(cccc13)-c1c(C3CCCCC3)c3ccc(C(=O)O)cc3n1CCC2 [Compound 322]

SMILES | IC50
CC(C)(C)OC(=O)N[C@H]1CCN2CCn3c(c(C4CCCCC4)c4ccc(C(=O)O)cc43)-c3cccc1c32 [Compound 295, (4S)-4-[(tert-butoxycarbonyl)amino]-15-cyclohexyl-5,6,8,9-tetrahydro-4H-indolo[1′,2′:4,5][1,4]diazepino[6,7,1-ij]quinoline-12-carboxylic acid] | 8.47 nM
